Assay results reported in patent US20070174926A1, “Sperm factor oscillogenin” (priority 2000, published 2007).
“Also recorded” adds a separate entry of the source. Marks after values point to notes of the source that are not given here.

How the values were obtained:
[1] = system: IP3R; conditions: full IP3R agonist; cited from earlier work
[2] = system: IP3R-1; experiment: Western blot quantification of IP3R-1 immunoreactivity in mouse eggs; assay type: cell-based; conditions: for IP3R-1 down-regulation (degradation): activation started 16 hr phCG, band intensity relative to MII eggs
Excerpt: (§1) Several commonly used parthenogenetic agents were used during the course of these studies, including ethanol and ionomycin, which induce a single [Ca^2+]i rise (Cuthbertson, J. Exp. Zool. 226: 311-14 (1983); and Shiina et al., J. Reprod. Fert 97: 143-50 (1993)), and others such as adenophostin A, SF, thimerosal, and SrCl2 that evoke [Ca^2+]i oscillations (Kline et al., Dev. Biol. 149: 80-9 (1992); Swann, Biochem J. 287: 79-84 (1992); and Sato et al., Biol. Reprod. 58: 867-73 (1998)). The activating compounds were either injected into eggs (e.g., adenophostin A and SF, see microinjection procedures for details) or added to the eggs' culture media (e.g., thimerosal, SrCl2). Activation was started in all cases at 16 hr post hCG administration (phCG) and eggs evaluated visually 2 hr later by observing second polar body extrusion (18 hr phCG) and 5 hr post-treatment by evaluation of pronuclear formation. After the activation procedure and the assigned incubation period (1, 2, 4 or 8 hr), eggs were collected in 5 μl Dulbecco's phosphate buffered solution (DPBS)/polyvinylpyrrolidone (3 mg/ml, PVP) and stored at −80° C.
(§2) Ethanol activation was carried out by exposing eggs to a 7% ethanol solution in TL-Hepes plus 3 mg/ml bovine serum albumin (BSA) for 5 min at 37° C. After the treatment, eggs were washed several times in TL-Hepes, and cultured for 8 hr (24 hr-phCG). Activation with ionomycin and 6-dimethylaminopurine (DMAP), a kinase inhibitor (Susko-Parrish et al., Dev. Biol. 166: 729-39 (1994)) was accomplished by incubating eggs with 5 μM ionomycin for 5 min in Ca^2+ free-DPBS plus 3 mg/ml BSA. Eggs were then washed in TL-Hepes/1 mg/ml BSA, placed in DMAP/KSOM (2 mM) for 4 hr and cultured for 4 hr after carefuilly washing them free of DMAP. Eggs activated with SrCl2 were incubated for 2 or 4 hr in a Ca^2+-free M-16-like medium supplemented with 10 mM SrCl2. The treated eggs were then washed in TL-Hepes supplemented with 5% FCS and cultured for 2, 4 or 6 hr, depending on the experiment. For thimerosal activation, eggs were exposed to freshly made solutions of 200 μM thimerosal in KSOM for 30 min. Thimerosal-treated eggs were washed free of the reagent using TL-Hepes supplemented with 5% FCS and incubated for 30 min, 1.5, 3.5 or 7.5 hr.
Lactacystin (100 μM; Calbiochem, La Jolla, Calif.), a proteasome inhibitor (Mellgren, J. Biol. Chem. 272: 29899-903 (1997); and Fenteany et al., J. Biol. Chem. 273: 8545-48 (1998)), was used to determine if the proteasome was involved in down-regulation of the IP3R-1 by SF. Eggs were incubated in the inhibitor for 30 min. prior to injections, and injections of SF were carried out in the presence of the inhibitor. Eggs were then cultured in a new drop of KSOM freshly supplemented with lactacystin for 2 hr.
Equal volumes of crude lysates from 15 or 20 mouse eggs and double strength sample buffer (Laemmli, Nature 227: 680-5 (1970)) were combined as previously described (He et al., Biol. Reprod. 57: 1245-55 (1997)). Samples were boiled for 3 min and loaded into a 4% SDS-polyacrylamide gels. The separated proteins were transferred onto nitrocellulose membranes (Micron Separation; Westboro, Mass.) using a Mini Trans Blot Cell (Bio-Rad; Hercules, Calif.) for 2 hr at 4° C. The membranes were first washed in PBS and 0.05% Tween (PBS-T) and then blocked in 6% nonfat dry milk in PBS-T for 1 hr. […]

[3] = system: mouse eggs; experiment: [Ca2+]i monitoring in fura-2 D loaded mouse eggs after agonist injection or exposure; assay type: cell-based; conditions: for Frequency of [Ca2+]i rises, in words: SF and adenophostin A compared with fertilization, p<0.05; for Amplitude of 1st rise / Amplitude of 3rd rise: [Ca2+]i; for Amplitude of 1st rise / Amplitude of 3rd rise / # of rises in 5 min / Duration of 1st rise / Duration of 3rd rise: mean ± SEM; for # of rises in 5 min: frequency during 5 min after return of first rise to baseline (Adenophostin A, SF) or after addition (SrCl2, thimerosal)
Experimental: Microinjection procedures were carried out as previously described (Wu et al., Dev. Biol. 203: 369-81 (1998)). Briefly, eggs were placed in a 50 μl microdrop of TL-Hepes supplemented with 2.5% sucrose and 20% FCS under paraffin oil and injected using manipulators (Narishige, Medical Systems Corp., Great Neck, N.Y.) mounted on a Nikon Diaphot microscope (Nikon, Inc., Garden City, N.Y.). Injection pipettes were loaded by suction from a 2-3 μl drop containing one of the following compounds: 0.5 mM fura-2 dextran (fura-2 D; […] K. Tanzawa, Sankyo Colo., Tokyo, Japan). All reagents were diluted in buffer containing 75 mM KCl and 20 mM HEPES, pH 7.0 and were delivered into the ooplasm by pneumatic pressure using a PLI-100 picoinjector (Medical Systems Corp.). […] Wu et al., 1998), and 100 nM for adenophostin A. […] Exp. Zool. 226: 311-14 (1983); and […] et al., J. Reprod. […] Swann, Biochem J. 287: 79-84 (1992); and Sato et al., Biol. Reprod. 58: 867-73 (1998)). […] Activation was started in all cases at 16 hr post hCG administration (phCG) and eggs evaluated visually 2 hr later by observing second polar body extrusion (18 hr phCG) and 5 hr post-treatment by evaluation of pronuclear formation. After the activation procedure and the assigned incubation period (1, 2, 4 or 8 hr), eggs were collected in 5 μl Dulbecco's phosphate buffered solution (DPBS)/polyvinylpyrrolidone (3 mg/ml, PVP) and stored at -80° C. […] Ethanol activation was carried out by exposing eggs to a 7% ethanol solution in TL-Hepes plus 3 mg/ml bovine serum albumin (BSA) for 5 min at 37° C. After the treatment, eggs were washed several times in TL-Hepes, and cultured for 8 hr (24 hr-phCG). […] Biol. 166: 729-39 (1994)) was accomplished by incubating eggs with 5 μM ionomycin for 5 min in Ca^2+ free-DPBS plus 3 mg/ml BSA. Eggs were then washed in TL-Hepes/1 mg/ml BSA, placed in DMAP/KSOM (2 mM) for 4 hr and cultured for 4 hr after carefuilly washing them free of DMAP. Eggs activated with SrCl2 were incubated for 2 or 4 hr in a Ca^2+-free M-16-like medium supplemented with 10 mM SrCl2. The treated eggs were then washed in TL-Hepes supplemented with 5% FCS and cultured for 2, 4 or 6 hr, depending on the experiment. […] Fluorescence Recordings and [Ca^2+]i Determinations Monitoring of [Ca^2+]i levels using fura-2 D loaded eggs was carried out as previously described (Wu et al., 1998). UV illumination was provided by a 75 watt xenon arc lamp, and 340 and 380 nm excitation wavelengths were utilized. The intensity of the UV light was attenuated 32-fold with neutral density filters, and a photomultiplier tube quantified the emitted light after passing through a 500 nm barrier filter. The fluorescence signal was averaged for the whole egg. A modified Phoscan 3.0 software program run on a 486 IBM-compatible system controlled the rotation of the filter wheel and shutter apparatus to alternate wavelengths. Free [Ca^2+]i was determined from the 340 nm/380 nm ratio of fluorescence. Rmin and Rmax were calculated using […] fura-2 D in Ca^2+-free DPBS supplemented with 2 mM EDTA (Rmin) or 2 mM CaCl2 (Rmax) and with 60% sucrose to correct for intracellular viscosity (Grynkiewicz et al., J. Biol. Chem. 260: 3440-50 (1985); and Poenie, Cell Calcium 11: 85-91 (1990)). The same solutions were also used alone for background subtractions. Ca^2+ measurements carried out in the presence of extracellular SrCl2 are presented as fluorescence ratios of the 340 nm/380 nm excitation wavelengths. Calculations of the [Ca^2+]i concentration was in this case not performed, since fura-2 has also some affinity for Sr^2+. The presence of intracellular Sr^2+ therefore interferes and prevents obtaining […] and/or Sr2+ intracellular concentrations (Hajnoczky et al., EMBO J., 16: 3533-43 (1997)). Eggs were measured individually in 35 μl drops of TL-Hepes medium placed on a glass coverslip on the bottom of a plastic culture dish under paraffin oil. […]

[4] = system: mouse eggs; experiment: Parthenogenetic activation of mouse eggs (second polar body extrusion, pronuclear formation); assay type: cell-based; conditions: for Egg activation: result in words
Excerpt: as §1
as §2, with “For thimerosal activation, eggs were exposed to freshly made solutions of 200 μM thimerosal in KSOM for 30 min. Thimerosal-treated eggs were washed free of the reagent using TL-Hepes supplemented with 5% FCS and incubated for 30 min, 1.5, 3.5 or 7.5 hr.” left out

Structure (SMILES)	Potency relative to IP3 [1]	IP3R-1 down-regulation (degradation) [2]	Frequency of [Ca2+]i rises, in words [3]	Amplitude of 1st rise [3]	Amplitude of 3rd rise [3]	# of rises in 5 min [3]	Duration of 1st rise [3]	Duration of 3rd rise [3]	Egg activation [4]	Cell cycle progression assessed by extrusion of the polar body in SF-injected eggs ([4]; eggs pretreated and incubated with inhibitor, not shown)	Effect on SF-induced degradation of IP3R-1 ([2]; 100 μM inhibitor, 30 min preincubation, 2 hr after SF injection)
Nc1ncnc2c1ncn2[C@@H]1O[C@H](CO)[C@@H](O[C@H]2O[C@H](CO)[C@@H](OP(=O)(O)O)[C@H](OP(=O)(O)O)[C@H]2O)[C@H]1OP(=O)(O)O [Adenophostin A, adenophostin A]	approximately 100 fold	significant down-regulation; also recorded: near total down-regulation	higher frequency	620 ± 30^a, b nM	530 ± 100^a nM	3.9 ± 1.5^a*,*	260 ± 65^a sec	70 ± 22^a sec			
[Cl-].[Cl-].[Sr+2] [SrCl2]		failed to induce any changes	lower frequency			1 ± 0.0^b	740 ± 290^b sec	360 ± 70^b sec	high rates of egg activation		
C[CH2][Hg][S]c1ccccc1C(=O)[O-].[Na+] [Thimerosal, thimerosal]		rapid and sustained down-regulation	low frequency	330 ± 30^b nM	640 ± 90^a nM	1 ± 0.4^b	180 ± 44^a sec	70 ± 16^a sec			
CCO [ethanol]		does not induce down regulation of IP3R-1							high rates of activation		
CC(=O)N[C@@H](CSC(=O)[C@]1([C@@H](O)C(C)C)NC(=O)[C@H](C)[C@@H]1O)C(=O)O [lactacystin]										clearly delayed	markedly inhibited
